Data set [1] can be described thus: Toxicity in zebra fish embryo assessed as survival rate at 100 ug/ml incubated for 48 hrs. Details: species or system Danio rerio. Conditions: zebrafish, zebrafish embryos, at 100 µg/mL.
Data set [2] has as its system Staphylococcus aureus. Description: Antibacterial activity against methicillin-resistant Staphylococcus aureus ATCC 1556 assessed as inhibition of bacterial growth measured after 16 to 20 hrs by CLSI broth microdilution method. Conditions: time 16-20 hrs. It is filed as functional. (Dilution methods test growth across graded concentrations, often in twofold steps.)

In data set [3] the test system is Enterococcus faecalis. Description: Antibacterial activity against Enterococcus faecalis ATCC 19433 assessed as inhibition of bacterial growth measured after 16 to 20 hrs by CLSI broth microdilution method. Conditions: time 16-20 hrs. It is filed as functional.
The subject of data set [4] is Pseudomonas aeruginosa. The experiment in a line: Antibacterial activity against Pseudomonas aeruginosa ATCC 27853 assessed as inhibition of bacterial growth measured after 16 to 20 hrs by CLSI broth microdilution method. The data set is classed as functional. The conditions noted are these: time 16-20 hrs.
Data set [5] relates to Enterococcus faecalis. The experiment in a line: Antibacterial activity against vancomycin-resistant Enterococcus faecalis ATCC 51299 assessed as inhibition of bacterial growth measured after 16 to 20 hrs by CLSI broth microdilution method. The data set is classed as functional. The conditions noted are these: time 16-20 hrs.
Data set [6] can be described thus: Toxicity in zebra fish embryo assessed as mortality at 33 ug/ml incubated for 48 hrs. Details: species or system Danio rerio. The conditions noted are these: zebrafish, dose 33 µg/ml.
Data set [7] can be described thus: Toxicity in zebra fish embryo assessed as mortality at 100 ug/ml incubated for 48 hrs. More on the design: species or system Danio rerio. Conditions: zebrafish, dose 100 µg/ml.

Values after ≈ are worked out from the molar mass of the structure shown.

For orientation: MIC means the least concentration at which growth counts as inhibited.

`CC[C@@](C)(NC(=O)[C@H](CC(C)C)NC(=O)CNC(=O)[C@@](C)(CC)NC(=O)C(C)(C)NC(=O)C(C)(C)NC(=O)C(C)(C)NC(=O)[C@@H](NC(C)=O)C(C)C)C(=O)NC(C)(C)C(=O)N1C[C@H](O)C[C@H]1C(=O)N[C@@H](CCC(N)=O)C(=O)N[C@](C)(CC)C(=O)N1C[C@H](O)C[C@H]1C(=O)NC(C)(C)C(=O)N[C@H](CO)Cc1ccccc1`: in data set [1], the survival at 48 h, 100 ug/ml was 75%. Also, the MIC in data set [2], in data set [3], in data set [4] and in data set [5] was above 100 µg/mL each time.

On to `CC[C@@](C)(NC(=O)[C@H](CC(C)C)NC(=O)CNC(=O)[C@@](C)(CC)NC(=O)C(C)(C)NC(=O)C(C)(C)NC(=O)C(C)(C)NC(=O)[C@H](Cc1ccccc1)NC(C)=O)C(=O)NC(C)(C)C(=O)N1C[C@H](O)C[C@H]1C(=O)N[C@@H](CCC(N)=O)C(=O)N[C@](C)(CC)C(=O)N1C[C@H](O)C[C@H]1C(=O)NC(C)(C)C(=O)N[C@H](CO)Cc1ccccc1`, for which the MIC in data set [2] is 32 µg/mL (≈ 20.2 µM); in data set [3] it was 64 µg/mL (≈ 40.3 µM); in data set [4], above 100 µg/mL; in data set [5], 64 µg/mL (≈ 40.3 µM). In addition, in data set [6], the Activity result was “Toxic”.

For `CC[C@@](C)(NC(=O)[C@H](CC(C)C)NC(=O)CNC(=O)C(C)(C)NC(=O)C(C)(C)NC(=O)C(C)(C)NC(=O)C(C)(C)NC(=O)[C@H](CC(C)C)NC(C)=O)C(=O)NC(C)(C)C(=O)N1C[C@H](O)C[C@H]1C(=O)N[C@@H](CCC(N)=O)C(=O)N[C@](C)(CC)C(=O)N1C[C@H](O)C[C@H]1C(=O)NC(C)(C)C(=O)N[C@H](CO)Cc1ccccc1`, the minimal inhibitory concentration (MIC) in data set [2], in data set [3], in data set [4] and in data set [5] was above 100 µg/mL in each case. Also, the Activity result in data set [7] is “Toxic”.

As to `CC[C@@](C)(NC(=O)[C@H](CC(C)C)NC(=O)CNC(=O)C(C)(C)NC(=O)C(C)(C)NC(=O)C(C)(C)NC(=O)C(C)(C)NC(=O)[C@@H](NC(C)=O)C(C)C)C(=O)NC(C)(C)C(=O)N1C[C@H](O)C[C@H]1C(=O)N[C@@H](CCC(N)=O)C(=O)N[C@](C)(CC)C(=O)N1C[C@H](O)C[C@H]1C(=O)NC(C)(C)C(=O)N[C@H](CO)Cc1ccccc1`, the survival at 48 h, 100 ug/ml in data set [1] is 70%. Moreover, the MIC in data set [2], in data set [3], in data set [4] and in data set [5] was above 100 µg/mL throughout.

GENTAMICIN: the MIC in data set [2] is 4 µg/mL; in data set [3] it was 8 µg/mL; in data set [4], 2 µg/mL; in data set [5] it was 4 µg/mL.

On to `CC(=O)O[C@H]1C[C@@]2(C)[C@@H](CC[C@H]3[C@@]4(C)C=CC(=O)[C@@H](C)[C@@H]4[C@H](OC(C)=O)C(=O)[C@@]32C)/C1=C(\CCC=C(C)C)C(=O)O` [HELVOLIC ACID], for which the MIC in data set [2] is 4 µg/mL (≈ 7.03 µM); in data set [3], 16 µg/mL (≈ 28.1 µM); in data set [4], above 100 µg/mL; in data set [5], 8 µg/mL (≈ 14.1 µM).

Turning to `CC[C@@](C)(NC(=O)[C@H](CC(C)C)NC(=O)CNC(=O)C(C)(C)NC(=O)C(C)(C)NC(=O)C(C)(C)NC(=O)C(C)(C)NC(=O)[C@H](Cc1ccccc1)NC(C)=O)C(=O)NC(C)(C)C(=O)N1C[C@H](O)C[C@H]1C(=O)N[C@@H](CCC(N)=O)C(=O)N[C@](C)(CC)C(=O)N1C[C@H](O)C[C@H]1C(=O)NC(C)(C)C(=O)N[C@H](CO)Cc1ccccc1`, the MIC was 64 µg/mL (≈ 40.7 µM) in data set [2], above 100 µg/mL in data set [3], above 100 µg/mL in data set [4] and above 100 µg/mL in data set [5]. The Activity result in data set [6] is “Toxic”.

With `CC[C@@](C)(NC(=O)[C@H](CC(C)C)NC(=O)CNC(=O)[C@@](C)(CC)NC(=O)C(C)(C)NC(=O)C(C)(C)NC(=O)C(C)(C)NC(=O)[C@H](CC(C)C)NC(C)=O)C(=O)NC(C)(C)C(=O)N1C[C@H](O)C[C@H]1C(=O)N[C@@H](CCC(N)=O)C(=O)N[C@](C)(CC)C(=O)N1C[C@H](O)C[C@H]1C(=O)NC(C)(C)C(=O)N[C@H](CO)Cc1ccccc1`, the MIC in data set [2], in data set [3], in data set [4] and in data set [5] was above 100 µg/mL each time. Also, the Activity result in data set [7] was “Toxic”.

Source of the values: ChEMBL document CHEMBL4837185, “Emerimicins V-X, 15-Residue Peptaibols Discovered from an Acremonium sp. through Integrated Genomic and Chemical Approaches” (J Nat Prod, 2021).
